Results from publication PMC8065421, “Repurposing Drugs for Mayaro Virus: Identification of EIDD-1931, Favipiravir and Suramin as Mayaro Virus Inhibitors” (Microorganisms, 2021).
Where two headings read alike, the source gives them in different places.

Experiments:
[1] = in vitro; details: African green monkey
[2] = system: MAYV; assay: Delay of treatment assay; assay type: cell-based, Mayaro virus (MAYV) strain TC625; details: for reduction of intracellular RNA by time of addition: EIDD-1931 25 µM, favipiravir 300 µM, suramin 500 µM, qRT-PCR
[3] = system: MAYV; assay: Antiviral CPE reduction assay; assay type: cell-based, Mayaro virus (MAYV) strain TC625; details: for Activity against MAYV (inhibition of MAYV-induced CPE): MOI 0.01
[4] = system: MAYV; assay type: cell-based, Mayaro virus (MAYV) strain TC625; details: for decrease in relative infectivity (ratio infectious virus vs. viral RNA): supernatant
[5] = Cytotoxicity assay on uninfected cells; details: African green monkey
[6] = system: Vero cells; assay: Cytotoxicity assay on uninfected cells
[7] = system: MAYV; details: virus yield assay, cited from earlier work
[8] = system: CHIKV; details: against CHIKV; cited from earlier work

Compound	reduction of intracellular RNA by time of addition ([2]; […], 10 h pi)	EC50 ([3]; Mayaro virus, Vero, 72 h) [µM]	decrease in infectious virus [4]	reduction in viral RNA and infectious virus content with increasing concentrations [4]	CC50 at 3 days [5] [µM]	Activity against MAYV (inhibition of MAYV-induced CPE) ([3]; Vero cells)	also measured
Cc1ccc(C(=O)Nc2ccc(S(=O)(=O)O)c3cc(S(=O)(=O)O)cc(S(=O)(=O)O)c23)cc1NC(=O)c1cccc(NC(=O)Nc2cccc(C(=O)Nc3cc(C(=O)Nc4ccc(S(=O)(=O)O)c5cc(S(=O)(=O)O)cc(S(=O)(=O)O)c45)ccc3C)c2)c1 [Suramin]	only when added at early time points (2 h prior to infection and 0 h pi)	124 ± 26	~ 5 log10	dose-dependent reduction	–	–	CC50 at 3 days [1]: > 2000 µM; decrease of infectious virus titers [2]: ~ −2 log10; relative infectivity of MAYV ([4]; all concentrations with the exception of the highest tested (500 µM)): not affected
C[C@@]1(O)[C@H](O)[C@@H](CO)O[C@H]1n1ccc(N)nc1=O [2’CMC, 2′-C-methylcytidine]	–	> 20	–	–	167 ± 7	not able to inhibit MAYV	–
NC(=O)c1ncn([C@@H]2O[C@H](CO)[C@@H](O)[C@H]2O)n1 [Ribavirin, 1-(β-D-ribofuranosyl)-1H-1,2,4-triazole-3-carboxamide]	–	> 200	–	–	250 ± 81	not active against MAYV	signs of toxicity determined microscopically ([6]; concentrations higher than 200 µM): signs of toxicity were determined microscopically at higher concentrations; blocking MAYV infectivity [4]: not effective; EC50 ([7]; strain TR4675, MOI 0.05): 62.5 µM; EC50 ([7]; strain TR4675, MOI 0.1): 255 µM
O=c1nc(NO)ccn1[C@@H]1O[C@H](CO)[C@@H](O)[C@H]1O [EIDD-1931, β-D-N^4-hydroxycytidine]	still resulted in a reduction when added until 2 h pi	–	~ 8 log10	dose-dependent reduction	–	–	activity on infectious virus ([2]; 25 µM, added at 6 h pi): modest activity; decrease in infectious virus ([2]; 25 µM, added until 4 h pi, […], 10 h pi): 2–3 log10; CC50 ([6]; uninfected Vero cells, day 3, microscopically or MTS/PMS): > 100 µM; EC50 ([3]; Vero cells, MAYV MOI 0.01, day 3 pi, MTS/PMS read-out): 1.6 ± 0.5 µM; inhibitory effect in virus yield assay ([4]; 3.1 µM): inhibitory effect was still observed; decrease in relative infectivity (ratio infectious virus vs. viral RNA) ([4]; starting from 6 µM): ~ 1000 fold
CCC(CC)COC(=O)[C@H](C)N[P@](=O)(OC[C@H]1O[C@@](C#N)(c2ccc3c(N)ncnn23)[C@H](O)[C@@H]1O)Oc1ccccc1 [Remdesivir]	–	> 100	–	–	–	not able to inhibit MAYV	CC50 at 3 days [1]: 297 ± 101 µM
CCN(CC)CCCC(C)Nc1ccnc2cc(Cl)ccc12 (centres unmarked) [Chloroquine]	–	> 200	–	–	–	did not show activity against MAYV	EC50 [8]: ~10 µM
CCOC(=O)c1c(CSc2ccccc2)n(C)c2cc(Br)c(O)c(CN(C)C)c12 [Arbidol]	–	> 60	–	–	> 100	did not show activity against MAYV	EC50 [8]: 12 µM
NC(=O)c1nc(F)c[nH]c1=O [Favipiravir]	only when added at early time points (2 h prior to infection and 0 h pi)	79 ± 4	~ 8 log10	dose-dependent reduction	2840 ± 86	–	reduction of viral titers ([2]; 300 µM, added until 2 h pi, […], 10 h pi): 2–3 log10; inhibitory effect in virus yield assay ([4]; 75 µM): inhibitory effect was still observed; decrease in relative infectivity (ratio infectious virus vs. viral RNA) ([4]; starting from 75 µM): ~ 100 fold
C[C@@]1(O)[C@H](O)[C@@H](CO)O[C@H]1n1ccc2c(N)ncnc21 [7DMA, 7-Deaza-2′-C-methyladenosine]	–	> 60	–	–	> 600	not able to inhibit MAYV	–
Nc1ncnc2c([C@@H]3N[C@H](CO)[C@@H](O)[C@H]3O)c[nH]c12 [Galidesivir]	–	> 100	–	–	238 ± 36	not able to inhibit MAYV	–
